Measurements published in paper PMC8557474, “Reliability of the AR-CALUX®In Vitro Method Used to Detect Chemicals with (Anti)Androgen Activity: Results of an International Ring Trial” (Toxicological Sciences, 2021).
In brackets after ≈: the same amount, converted by molar mass.

Columns and labels:
[1] = Solubility testing (visual inspection, centrifugation, microscopy)
Description: It details the cell cultivation and seeding procedure, the preparation of the reference, control and test chemicals, the procedure for agonist testing and antagonist testing, prescreen runs, and comprehensive runs, as well as data analysis and data interpretation. This SOP also includes references to the SOPs for solubility testing and cytotoxicity testing. […] Solubility was tested both in the solvent and in media under similar circumstances as would be required during the (ant)agonist testing. The initial concentration to be tested was prescribed at 50 mg/ml. Starting from the highest soluble concentration, cytotoxicity was determined with an LDH assay. Visual checking of cytotoxicity in all wells of the plate was however also required for each run.
This included an investigation by heating, centrifugation, microscopy, and visual checking. […] For the purpose of the validation study, the labs were requested to start from 50 mg/ml as the maximal stock concentration to be tested.

[2] = molecular target: T1, human androgen receptor (hAR) (Homo sapiens, UniProt P10275); test: cell-based; assay type: cell-based
T1 construct: host or cells: U2-OS human osteosarcoma cells (ATCC HTB 96), stably transfected (AR-CALUX cell line)
T1 sequence (P10275 1-920): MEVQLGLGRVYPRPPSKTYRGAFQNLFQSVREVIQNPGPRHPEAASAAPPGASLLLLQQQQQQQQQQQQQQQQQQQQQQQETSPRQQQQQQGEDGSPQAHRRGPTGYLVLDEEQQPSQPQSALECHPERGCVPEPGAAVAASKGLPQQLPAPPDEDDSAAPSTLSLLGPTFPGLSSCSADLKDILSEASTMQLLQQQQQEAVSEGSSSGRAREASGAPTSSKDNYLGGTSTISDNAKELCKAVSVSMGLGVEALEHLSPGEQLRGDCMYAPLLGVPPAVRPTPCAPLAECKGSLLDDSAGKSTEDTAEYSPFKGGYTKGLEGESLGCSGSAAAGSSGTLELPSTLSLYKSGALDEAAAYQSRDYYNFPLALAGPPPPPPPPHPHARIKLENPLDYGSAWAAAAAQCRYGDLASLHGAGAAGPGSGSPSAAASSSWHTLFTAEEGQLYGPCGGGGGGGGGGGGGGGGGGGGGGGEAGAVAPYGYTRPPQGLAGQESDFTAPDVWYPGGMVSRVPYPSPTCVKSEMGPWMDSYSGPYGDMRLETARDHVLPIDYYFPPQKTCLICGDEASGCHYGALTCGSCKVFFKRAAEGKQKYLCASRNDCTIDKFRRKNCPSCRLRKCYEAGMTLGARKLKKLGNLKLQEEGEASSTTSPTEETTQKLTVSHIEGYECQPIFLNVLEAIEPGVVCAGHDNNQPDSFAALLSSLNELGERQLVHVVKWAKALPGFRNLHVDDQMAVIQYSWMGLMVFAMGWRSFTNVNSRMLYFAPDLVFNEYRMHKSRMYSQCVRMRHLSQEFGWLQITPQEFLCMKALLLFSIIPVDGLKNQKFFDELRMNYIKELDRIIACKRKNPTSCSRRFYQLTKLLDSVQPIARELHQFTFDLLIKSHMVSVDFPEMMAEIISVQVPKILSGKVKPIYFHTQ
Text: (§1) The AR-CALUX® cell line was created by BioDetection Systems (BDS). It can be purchased from BDS with a license (https://www.biodetectionsystems.com). The human osteosarcoma cell line U2-OS (ATCC HTB 96) was transfected with 2 constructs: pSG5-neo-hAR carrying the cDNA of a human androgen receptor (hAR) under a constitutive promoter, and, a luciferase reporter gene which is preceded by a triple tandem of AREs in front of a TATA box (3x ARE Luc). […] The AR-CALUX® cell line was obtained from the test method developer BDS. EURL ECVAM prepared a master cell bank and a large working cell bank which were tested for the absence of mycoplasma, bacteria, fungi, and yeast and for the absence of Hepatitis B and C and HIV. In addition, to verifying the authenticity of the cell line, Short Tandem Repeat (STR) profiling was carried out to confirm the test system to be U2-OS cells. […] The laboratories were requested, at the end of each part of the study (Parts 1, 2, and 3), to perform a mycoplasma test of their choice. Additional aliquots were sent to EURL ECVAM for a reanalysis of authenticity.
(§2) Subsequently, the test chemical was assessed with a prescreen run (dilution steps of 10) and simultaneously with the quantitative cytotoxicity test to determine (1) cytotoxic concentrations, (2) the response, and (3) the appropriate dose range to be tested. […] The cytotoxicity test was performed once more. Test chemicals were diluted in media and consisted of 8 serial dilutions. Each dilution was tested in triplicate.
(§3) Each experiment (run) was comprised of a maximum of 6 plates. The first plate would contain 8 serial dilutions of the reference chemical DHT (for agonism) or Flutamide (for antagonism), while the positive and negative controls were added at fixed concentrations. In addition, a solvent control was added (medium without the chemical but with DMSO 0.1%).
A. Positive when the relative induction (Yc) of the test item is ≥ 10% (REF RPC10) for two or more consecutive concentrations.

[3] = molecular target: T1, human androgen receptor (hAR); test: AR-CALUX antagonist assay (medium spiked with DHT at EC50); assay type: cell-based
Text: as §1, §2, §3
For the antagonist assay, the medium was supplemented with DHT at EC50 concentration (standard assay). […] Each antagonist assay was accompanied by a specificity control test carried out on the same plate.
A. Positive (competitive antagonist) when the relative induction (Yc) of the test item is ≤ 80% (REF RPC80) for two or more consecutive concentrations and […]

[4] = DMSO, organic solvent or mixture, thermodynamic from solid, Solubility in DMSO, Lab 1, DMSO, Lab 1, highest tested 50 mg/ml
[5] = DMSO, organic solvent or mixture, thermodynamic from solid, Solubility in DMSO, Lab 2, DMSO, Lab 2, highest tested 50 mg/ml
[6] = DMSO, organic solvent or mixture, thermodynamic from solid, Solubility in DMSO, Lab 3, DMSO, Lab 3, highest tested 50 mg/ml
[7] = DMSO, organic solvent or mixture, thermodynamic from solid, Solubility in DMSO, Lab 4, DMSO, Lab 4, highest tested 50 mg/ml
[8] = assay medium, aqueous buffer, kinetic from dmso stock, Solubility in medium, Lab 1, assay medium, Lab 1
[9] = assay medium, aqueous buffer, kinetic from dmso stock, Solubility in medium, Lab 2, assay medium, Lab 2
[10] = assay medium, aqueous buffer, kinetic from dmso stock, Solubility in medium, Lab 3, assay medium, Lab 3
[11] = assay medium, aqueous buffer, kinetic from dmso stock, Solubility in medium, Lab 4, assay medium, Lab 4
[12] = aqueous buffer, kinetic from dmso stock, Solubility in medium, Lab 1, assay medium, Lab 1
[13] = aqueous buffer, kinetic from dmso stock, Solubility in medium, Lab 2, assay medium, Lab 2
[14] = aqueous buffer, kinetic from dmso stock, Solubility in medium, Lab 3, assay medium, Lab 3
[15] = aqueous buffer, kinetic from dmso stock, Solubility in medium, Lab 4, assay medium, Lab 4
[16] = organic solvent or mixture, thermodynamic from solid, Solubility in DMSO, Lab 1, DMSO, Lab 1, highest tested 50 mg/ml
[17] = organic solvent or mixture, thermodynamic from solid, Solubility in DMSO, Lab 2, DMSO, Lab 2, highest tested 50 mg/ml
[18] = organic solvent or mixture, thermodynamic from solid, Solubility in DMSO, Lab 3, DMSO, Lab 3, highest tested 50 mg/ml
[19] = organic solvent or mixture, thermodynamic from solid, Solubility in DMSO, Lab 4, DMSO, Lab 4, highest tested 50 mg/ml

CC(=O)S[C@@H]1CC2=CC(=O)CC[C@]2(C)[C@H]2CC[C@@]3(C)[C@@H](CC[C@@]34CCC(=O)O4)[C@H]12 [Spironolactone] gave a solubility [1, 4] of 15000 µg/mL (≈ 36000 µM), a solubility [1, 5] of over 50000 µg/mL and a solubility [1, 6] of over 50000 µg/mL. The solubility [1, 7] was over 50000 µg/mL, the solubility [1, 8] was 15 µg/mL (≈ 36 µM) and the solubility [1, 9] was over 50 µg/mL. The solubility [1, 10] was over 50 µg/mL and the solubility [1, 11] was over 50 µg/mL.
With C[C@]12C=CC3=C4CCC(=O)C=C4CC[C@H]3[C@@H]1CC[C@@H]2O [17β-Trenbolone] the “Agonist classification per run, Lab 1” value [2] was “P P P”, the “Agonist classification per run, Lab 2” value [2] was “P P P” and the “Agonist classification per run, Lab 3” value [2] was “P P P”. The “Agonist classification per run, Lab 4” value [2] was “P P P”, the EC50 [2] was 0.245 nM and the “Antagonist classification per run, Lab 1” value [3] was “N N N”. For the same molecule, the “Antagonist classification per run, Lab 2” value [3] was “N N N”, the “Antagonist classification per run, Lab 3” value [3] was “− N N” and the “Antagonist classification per run, Lab 4” value [3] was “N N N”.
For C[C@]12CCC(=O)C[C@@H]1CC[C@@H]1[C@@H]2CC[C@@]2(C)[C@H]1CC[C@]2(C)O [Methyldihydrotestosterone], the “Solubility in DMSO, Lab 1” value ([1]; DMSO, Lab 1, highest tested 50 mg/ml) was 5000 µg/mL (≈ 16400 µM), the “Solubility in DMSO, Lab 2” value ([1]; DMSO, Lab 2, highest tested 50 mg/ml) was 5000 µg/mL (≈ 16400 µM) and the “Solubility in DMSO, Lab 3” value ([1]; DMSO, Lab 3, highest tested 50 mg/ml) was 15000 µg/mL (≈ 49300 µM). The “Solubility in DMSO, Lab 4” value ([1]; DMSO, Lab 4, highest tested 50 mg/ml) was 15000 µg/mL (≈ 49300 µM), the “Solubility in medium, Lab 1” value ([1]; assay medium, Lab 1) was 5 µg/mL (≈ 16.4 µM) and the “Solubility in medium, Lab 2” value ([1]; assay medium, Lab 2) was 5 µg/mL (≈ 16.4 µM). The “Solubility in medium, Lab 3” value ([1]; assay medium, Lab 3) was 5 µg/mL (≈ 16.4 µM) and the “Solubility in medium, Lab 4” value ([1]; assay medium, Lab 4) was 5 µg/mL (≈ 16.4 µM).
Molecule C[C@]1(O)CC[C@H]2[C@@H]3CCC4=CC(=O)CC[C@]4(C)[C@@]3(F)[C@@H](O)C[C@@]21C [Fluoxymesterone] has a solubility [1, 12] of 5 µg/mL (≈ 14.9 µM), a solubility [1, 13] of 5 µg/mL (≈ 14.9 µM) and a solubility [1, 14] of 5 µg/mL (≈ 14.9 µM). For the same molecule, the solubility [1, 15] was 15 µg/mL (≈ 44.6 µM), the solubility [1, 16] was over 50000 µg/mL and the solubility [1, 17] was 5000 µg/mL (≈ 14900 µM). It also gave a solubility [1, 18] of over 50000 µg/mL and a solubility [1, 19] of over 50000 µg/mL.
CC(O)(CS(=O)(=O)c1ccc(F)cc1)C(=O)Nc1ccc(C#N)c(C(F)(F)F)c1 (stereo not shown) [Bicalutamide] showed a solubility [1, 4] of over 50000 µg/mL, a solubility [1, 5] of over 50000 µg/mL and a solubility [1, 6] of over 50000 µg/mL. It also gave a solubility [1, 7] of over 50000 µg/mL, a solubility [1, 8] of over 50 µg/mL and a solubility [1, 9] of over 50 µg/mL. It also gave a solubility [1, 10] of over 50 µg/mL and a solubility [1, 11] of over 50 µg/mL.
CCCCOC(=O)c1ccccc1C(=O)OCc1ccccc1 [Benzylbutyl phthalate] gave a solubility [1, 12] of 1.5 µg/mL (≈ 4.8 µM), a solubility [1, 13] of over 50 µg/mL and a solubility [1, 14] of 15 µg/mL (≈ 48 µM). It also gave a solubility [1, 15] of 15 µg/mL (≈ 48 µM), a solubility [1, 16] of over 50000 µg/mL and a solubility [1, 17] of over 50000 µg/mL. The solubility [1, 18] was over 50000 µg/mL and the solubility [1, 19] was over 50000 µg/mL.
